According to US10987316B2, “Compositions and methods for transdermal delivery of tertiary amine drugs” (priority 2013, dated 2021):

Assay: In vitro flux of rivastigmine liquid across human skin only
Assay type: in vitro ADME
Details: rivastigmine liquid infinite dose 0.5 ml/cm^2
Procedure: The flux of rivatsigmine liquid (“infinite-dose” of 0.5 ml/cm^2) across systems prepared using different rate controlling membranes (with different vinyl acetate contents and different thicknesses) with or without a 5 mg/cm^2 silicone face adhesive was assessed in an in vitro flux study, as shown below.

## CCN(C)C(=O)Oc1cccc([C@H](C)N(C)C)c1 [Rivastigmine, (S)-3-[1-(dimethylamino)ethyl]phenyl ethylmethylcarbamate]
  Rivastigmine steady-state flux, human skin only: 32 ± 14 μg/cm^2/hr
